Test results published in US20230322789A1, “PYRAZOLOPYRIDAZINONE COMPOUND, AND PHARMACEUTICAL COMPOSITION AND USE THEREOF” (BroadenBio Co., Ltd., priority 2020, published 2023).

biological target: HPK1 (Homo sapiens (Human), UniProt Q92918); experiment: HPK1 kinase activity inhibition test (ADP-Glo, luminescence); assay type: biochemical; settings: HPK1 5 nM, ATP 2 μM, read-out: IC50, inhibitory effects of compounds on HPK1 kinase activity
Description: 1. HPK1 Kinase Activity Inhibition Test
The kinase activity of HPK1 is manifested as activity of autophosphorylation and phosphorylation of downstream substrates. In the process of autophosphorylation, additional substrates are not required, and ATP is consumed to generate ADP. The amount of the product was measured by ADP-Glo reagent and luminescence method to reflect kinase activity.
Test compounds: compounds prepared in the examples of this application.
Prepare compound stock solution: dissolve the compound to be tested in 100% DMSO to make a 10 mM stock solution;
Prepare 4× Kinase Reaction Buffer:
Prepare 2×HPK1 Kinase Solution:
Dilute the stock solution of the compound to be tested by 5 times with […], make a 4-fold equal dilution in a 96-well dilution plate, add 1 μL of the compound to 49 µL of kinase reaction buffer, and shake on a microplate shaker for 20 minutes. Transfer 2 μL of […] kinase solution to 384 reaction plate, add 1 μL of the test compound to the 384 reaction plate (Greiner, 784075), centrifuge for 1 minute (1000 rpm/min), incubate at 25° C. for 10 minutes. Transfer […] of the 4×ATP mixture to a 384 reaction plate, centrifuge for 1 minute (1000 rpm/mm), and incubate at 25° C. for 60 minutes. In the reaction system, the final concentration of DMSO was […]. Transfer 4 μL of ADP-Glo to a 384 reaction plate, centrifuge for 1 minute (1000 rpm/min), and incubate at 25° C. for 40 minutes. Transfer 8 μL detection solution to a 384 reaction plate, centrifuge for 1 minute (1000 rpm/min), and incubate at 25° C. for 40 minutes. The […] signal was read using a Biotek multi-function plate reader, and the […] (half inhibitory concentration) of the compound was obtained using a four-coefficient nonlinear fitting formula.

HPK1, sequence (Q92918 whole entry): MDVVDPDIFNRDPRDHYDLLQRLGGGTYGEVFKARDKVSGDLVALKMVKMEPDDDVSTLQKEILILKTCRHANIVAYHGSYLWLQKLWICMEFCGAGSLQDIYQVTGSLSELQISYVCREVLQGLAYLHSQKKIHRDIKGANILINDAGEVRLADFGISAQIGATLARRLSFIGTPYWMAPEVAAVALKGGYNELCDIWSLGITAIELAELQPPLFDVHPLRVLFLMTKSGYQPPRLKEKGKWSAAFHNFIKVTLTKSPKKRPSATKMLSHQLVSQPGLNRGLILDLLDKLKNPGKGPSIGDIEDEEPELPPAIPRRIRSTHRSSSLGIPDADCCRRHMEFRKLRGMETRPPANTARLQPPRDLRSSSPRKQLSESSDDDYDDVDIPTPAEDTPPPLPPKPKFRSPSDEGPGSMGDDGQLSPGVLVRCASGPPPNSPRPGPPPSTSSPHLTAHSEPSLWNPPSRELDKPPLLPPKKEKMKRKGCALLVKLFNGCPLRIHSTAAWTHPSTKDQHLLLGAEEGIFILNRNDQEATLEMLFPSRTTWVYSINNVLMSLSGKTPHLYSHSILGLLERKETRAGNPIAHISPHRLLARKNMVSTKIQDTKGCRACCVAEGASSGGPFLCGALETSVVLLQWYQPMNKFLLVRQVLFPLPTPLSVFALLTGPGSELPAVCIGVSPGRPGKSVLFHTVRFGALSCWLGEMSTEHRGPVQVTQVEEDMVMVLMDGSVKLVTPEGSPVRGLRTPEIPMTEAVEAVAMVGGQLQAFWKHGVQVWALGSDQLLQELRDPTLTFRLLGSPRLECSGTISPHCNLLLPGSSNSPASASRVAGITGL

Compound	IC50 [µM]
Cc1cccc(F)c1-n1nc2c(-c3ccc4c(c3)C3COC(=O)N3CC4)n[nH]c2cc1=O (stereo not shown) [Compound 185, 9-(5-(2-fluoro-6-methylphenyl)-6-oxo-5,6-dihydro-1H-pyrazolo[4,3-c]pyridazin-3-yl)-5,6-dihydro-1H-oxazolo[4,3-a]isoquinolin-3(10bH)-one]	0.5 to 2
Cc1cccc(F)c1-n1nc2c(-c3ccc4c(c3)C(=O)N(C)CC4)n[nH]c2cc1=O [Compound 183]	0.5 to 2
Cc1cccc(F)c1-n1nc2c(-c3ccc4c(c3)CN(C)C4)n[nH]c2cc1=O [Compound 197, 5-(2-fluoro-6-methylphenyl)-3-(2-methylisoindolin-5-yl)-1H-pyrazolo[4,3-c]pyridazin-6(5H)-one]	≤ 0.05
COC[C@@H]1Cc2ccc(-c3n[nH]c4cc(=O)n(-c5c(C)cccc5F)nc34)cc2CN1C [Compound 180, (S)-5-(2-fluoro-6-methylphenyl)-3-(3-(methoxymethyl)-2-methyl-1,2,3,4-tetrahydroisoquinolin-7-yl)-1H-pyrazolo[4,3-c]pyridazin-6(5H)-one]	≤ 0.05
COc1cc(C#N)cc(F)c1-n1nc2c(-c3cccc(N4CC5CCC(C4)N5C)c3)n[nH]c2cc1=O [Compound 203, 3-fluoro-5-methoxy-4-(3-(3-(8-methyl-3,8-diazabicyclo[3.2.1]octan-3-yl)phenyl)-6-oxo-1H-pyrazolo[4,3-c]pyridazin-5(6H)-yl)benzonitrile]	≤ 0.05
Cc1cc(C#N)cc(F)c1-n1nc2c(-c3ccc4c(c3)CN(C(=O)CO)CC4)n[nH]c2cc1=O [Compound 172, 3-fluoro-4-(3-(2-(2-hydroxylacetyl)-1,2,3,4-tetrahydroisoquinolin-7-yl)-6-oxo-1H-pyrazolo[4,3-c]pyridazin-5(6H)-yl)-5-methylbenzonitrile]	0.05 to 0.5
Cc1cccc(F)c1-n1nc2c(-c3ccc4c(c3)CN(C)C(=O)C4)n[nH]c2cc1=O [Compound 182, 7-(5-(2-fluoro-6-methylphenyl)-6-oxo-5,6-dihydro-1H-pyrazolo[4,3-c]pyridazin-3-yl)-2-methyl-1,2-dihydroisoquinolin-3(4H)-one]	0.05 to 0.5
Cc1cccc(F)c1-n1nc2c(-c3cnn(C4CCN(C)CC4)c3)n[nH]c2cc1=O [Compound 19, 5-(2-fluoro-6-methylphenyl)-3-(1-(1-methylpiperidin-4-yl)-1H-pyrazol-4-yl)-1H-pyrazolo[4,3-c]pyridazin-6(5H)-one]	0.5 to 2
Cc1cccc(F)c1-n1nc2c(-c3ccc4c(c3)CN(C)[C@@H](CO)C4)n[nH]c2cc1=O [Compound 179, (R)-5-(2-fluoro-6-methylphenyl)-3-(3-(hydroxymethyl)-2-methyl-1,2,3,4-tetrahydroisoquinolin-7-yl)-1H-pyrazolo[4,3-c]pyridazin-6(5H)-one]	0.05 to 0.5
CNCc1cc(-c2n[nH]c3cc(=O)n(-c4c(C)cccc4F)nc23)ccc1N1CCN(C)CC1 [Compound 96, 3-(3-((methylamino)methyl)-4-(4-methylpiperazin-1-yl)phenyl)-5-(2-fluoro-6-methylphenyl)-1H-pyrazolo[4,3-c]pyridazin-6(5H)-one]	0.05 to 0.5
Cc1cc(C#N)cc(F)c1-n1nc2c(-c3ccc4c(c3)CN(C(=O)C(C)O)CC4)n[nH]c2cc1=O (stereo not shown) [Compound 173, 3-fluoro-4-(3-(2-(2-hydroxylpropionyl)-1,2,3,4-tetrahydroisoquinolin-7-yl)-6-oxo-1H-pyrazolo[4,3-c]pyridazin-5(6H)-yl)-5-methylbenzonitrile]	0.05 to 0.5

Now from value to compound:

IC50 [µM]	Compound
0.5 to 2	Cc1cccc(F)c1-n1nc2c(-c3ccc(N4CCN(C)CC4=O)cc3)n[nH]c2cc1=O [Compound 12, 5-(2-fluoro-6-methylphenyl)-3-(4-(4-methyl-2-oxopiperazin-1-yl)phenyl)-1H-pyrazolo[4,3-c]pyridazin-6(5H)-one]
0.05 to 0.5	COc1cccc(F)c1-n1nc2c(-c3cc4c(cc3F)CCN(C)C4)n[nH]c2cc1=O [Compound 191, 3-(6-fluoro-2-methyl-1,2,3,4-tetrahydroisoquinolin-7-yl)-5-(2-fluoro-6-methoxyphenyl)-1H-pyrazolo[4,3-c]pyridazin-6(5H)-one]
0.05 to 0.5	Cc1cccc(F)c1-n1nc2c(-c3cnc(N4CCOCC4)nc3)n[nH]c2cc1=O [Compound 32, 5-(2-fluoro-6-methylphenyl)-3-(2-morpholinylpyrimidin-5-yl)-1H-pyrazolo[4,3-c]pyridazin-6(5H)-one]
0.05 to 0.5	COc1cccc(F)c1-n1nc2c(-c3ccc4c(c3)CN(CC(F)F)CC4)n[nH]c2cc1=O [Compound 166, 3-(2-(2,2-difluoroethyl)-1,2,3,4-tetrahydroisoquinolin-7-yl)-5-(2-fluoro-6-methoxyphenyl)-1H-pyrazolo[4,3-c]pyridazin-6(5H)-one]
≤ 0.05	COc1cccc(F)c1-n1nc2c(-c3ccc(N4CCOCC4)cc3)n[nH]c2cc1=O [Compound 92, 5-(2-fluoro-6-methoxyphenyl)-3-(4-morpholinophenyl)-1H-pyrazolo[4,3-c]pyridazin-6(5H)-one]
0.05 to 0.5	COc1cccc(F)c1-n1nc2c(-c3ccc4c(c3F)CN(C)CC4)n[nH]c2cc1=O [Compound 190, 3-(8-fluoro-2-methyl-1,2,3,4-tetrahydroisoquinolin-7-yl)-5-(2-fluoro-6-methoxyphenyl)-1H-pyrazolo[4,3-c]pyridazin-6(5H)-one]
0.05 to 0.5	CC(=O)N1CCN(c2ccc(-c3n[nH]c4cc(=O)n(-c5c(C)cccc5F)nc34)cn2)CC1 [Compound 102, 3-(6-(4-acetylpiperazin-1-yl)pyrid-3-yl)-5-(2-fluoro-6-methylphenyl)-1H-pyrazolo[4,3-c]pyridazin-6(5H)-one]
0.05 to 0.5	Cc1cc(Cl)cc(F)c1-n1nc2c(-c3ccc(N4CCN(C)CC4)cc3)n[nH]c2cc1=O [Compound 78, 5-(4-chloro-2-fluoro-6-methylphenyl)-3-(4-(4-methylpiperazin-1-yl)phenyl)-1H-pyrazolo[4,3-c]pyridazin-6(5H)-one]
0.05 to 0.5	COc1cnccc1-n1nc2c(-c3ccc(N4CCN(C)CC4)cc3)n[nH]c2cc1=O [Compound 153, 5-(3-methoxypyrid-4-yl)-3-(4-(4-methylpiperazin-1-yl)phenyl)-1H-pyrazolo[4,3-c]pyridazin-6(5H)-one]
0.05 to 0.5	COc1cccc(F)c1-n1nc2c(-c3cccc(N4CCC(O)CC4)c3)n[nH]c2cc1=O [Compound 206, 3-(3-(4-hydroxylpiperidin-1-yl)phenyl)-5-(2-fluoro-6-methoxyphenyl)-1H-pyrazolo[4,3-c]pyridazin-6(5H)-one]
0.05 to 0.5	Cc1cccc(F)c1-n1nc2c(-c3ccc(N4CCN(C)CC4)cc3)n[nH]c2c(C)c1=O [Compound 55, 5-(2-fluoro-6-methylphenyl)-7-methyl-3-(4-(4-methylpiperazin-1-yl)phenyl)-1H-pyrazolo[4,3-c]pyridazin-6(5H)-one]
0.05 to 0.5	Cc1cccc(F)c1-n1nc2c(-c3ccc4c(c3)CN3CCOC[C@@H]3C4)n[nH]c2cc1=O [Compound 181, (S)-5-(2-fluoro-6-methylphenyl)-3-(1,3,4,6,11,11a-hexahydro-[1,4]oxazino[4,3-b]isoquinolin-8-yl)-1H-pyrazolo[4,3-c]pyridazin-6(5H)-one]

test system: Human Jurkat-E6-1 cells; experiment: Measurement of IL-2 secretion of Jurkat cells by ELISA; assay type: cell-based; settings: Homo sapiens, Jurkat E6.1; test compound 1.0 μM; anti-CD3/anti-CD28 stimulation 24 hours; read-out: Percentage of the amount of IL-2 secreted from compound treated/DMSO-treated cells
Description: 2. Measurement of IL-2 Secretion of Jurkat Cells by ELISA
Human Jurkat-E6-1 cells were incubated with various concentrations of test compounds for 30 minutes in a humidified incubator at 37° C. and […]. Cells were transferred to cell culture plates pre-coated with anti-human CD3 antibody, then soluble anti-human CD28 antibody was added, and cells were stimulated for 24 hours at 37° C. and 5% CO2 in a humidified incubator. The cell culture medium was collected by centrifugation, and was then transferred to a 96-well transparent microtiter plate (Thermo) pre-coated with anti-human IL-2 antibody, incubated at room temperature for 2 hours, and gently shaken, washed with washing buffer for 4 times, and then followed the ELISA MAX Deluxe Set Human IL-2 (BioLegend) kit procedure, used a microplate reader (Molecular Device, i3X) to read the GD value. The best standard curve was selected by the microplate reader application software, and the corresponding concentration was calculated according to the GD value of the standard. Results are expressed as a percentage of the amount of IL-2 secreted from compound-treated/DMSO-treated cells.

Compound	activity at 1 µM [%]
CCc1cccc(F)c1-n1nc2c(-c3ccc(N4CCN(CC(C)(C)O)CC4)cc3)n[nH]c2cc1=O [Compound 116, 5-(2-ethyl-6-fluorophenyl)-3-(4-(4-(2-hydroxyl-2-methylpropyl)piperazin-1-yl)phenyl)-1H-pyrazolo[4,3-c]pyridazin-6(5H)-one]	193

same assay, conditions: Homo sapiens, Jurkat E6.1; test compound 3.0 μM; anti-CD3/anti-CD28 stimulation 24 hours; read-out: Percentage of the amount of IL-2 secreted from compound treated/DMSO-treated cells

Compound	activity at 3 µM [%]
Cc1cccc(F)c1-n1nc2c(-c3ccc(N4CCN5C(=O)OCC5C4)nc3)n[nH]c2cc1=O (stereo not shown) [Compound 129, 7-(5-(5-(2-fluoro-6-methylphenyl)-6-oxo-5,6-dihydro-1H-pyrazolo[4,3-c]pyridazin-3-yl)pyridin-2-yl)tetrahydro-1H-oxazolo[3,4-a]pyrazin-3(5H)-one]	807
